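Five concentrations, 48 hours, 96-well plates. TGI: concentration producing complete growth inhibition.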

Some test systems named below: 786-0 renal; A498 renal; ACHN renal; BT-549 breast; CAKI-1 renal; COLO 205 colon; HOP-62 NSCLC; M14 melanoma; MDA-MB-231 breast; MDA-N; OVCAR-4 ovarian; OVCAR-8 ovarian; PC-3 prostate; SF-268 CNS; SNB-75 CNS; SR leukemia; SW-620 colon; UACC-257 melanoma.
Assay in all cases: NCI tumour cell line growth inhibition, 48 h

For the compound `CNC(=S)NNC1=NCCCCN1`, the TGI in the assay on 786-0 renal, in the assay on A498 renal, with ACHN renal, in the assay with BT-549 breast, in the assay on CAKI-1 renal and with COLO 205 colon was more than 100 µM throughout. Moreover, the TGI in the assay on HOP-62 NSCLC, in the assay on M14 melanoma, in the assay on MDA-MB-231 breast, in the assay with MDA-N, with OVCAR-4 ovarian and with OVCAR-8 ovarian was more than 100 µM each time. Moreover, the TGI in the assay with PC-3 prostate, in the assay on SF-268 CNS, with SNB-75 CNS, with SR leukemia, with SW-620 colon and in the assay with UACC-257 melanoma was more than 100 µM in each case.
Consider `CCn1c(=O)c2c3ccc(O)cc3oc2c2ccc(O)cc21`, for which the TGI in the assay on 786-0 renal was more than 100 µM; in the assay on A498 renal, 84.5 µM; in the assay with ACHN renal, 88 µM; in the assay with BT-549 breast it was more than 100 µM; in the assay with CAKI-1 renal it was more than 100 µM; with COLO 205 colon, more than 100 µM. The TGI with HOP-62 NSCLC, with M14 melanoma, in the assay with MDA-MB-231 breast, with MDA-N, in the assay on OVCAR-4 ovarian and in the assay with OVCAR-8 ovarian was more than 100 µM in each case. For the same compound, the TGI in the assay on PC-3 prostate, in the assay with SF-268 CNS, in the assay with SNB-75 CNS, with SR leukemia, in the assay with SW-620 colon and in the assay with UACC-257 melanoma was more than 100 µM each time.
`COc1ccc(CCN(C)C(=O)CC(C#N)(c2ccccc2)c2ccc(OC)c(OC)c2)cc1OC` (configuration not stated): the TGI in the assay on 786-0 renal, in the assay with A498 renal, in the assay on ACHN renal, in the assay with BT-549 breast, with CAKI-1 renal and in the assay with COLO 205 colon was more than 100 µM each time. For the same compound, the TGI in the assay on HOP-62 NSCLC, in the assay on M14 melanoma, in the assay with MDA-MB-231 breast, with MDA-N, in the assay with OVCAR-4 ovarian and in the assay on OVCAR-8 ovarian was more than 100 µM each time. For the same compound, the TGI in the assay with PC-3 prostate is more than 100 µM; in the assay with SF-268 CNS it was more than 100 µM; in the assay on SNB-75 CNS it was more than 100 µM; in the assay on SR leukemia it was 99.3 µM; with SW-620 colon it was more than 100 µM; with UACC-257 melanoma, more than 100 µM.
On to `O=c1c2c3c(sc2nc2n1N=CN(c1ccc(Cl)cc1)C2)CCCC3`, for which the TGI with 786-0 renal, in the assay on A498 renal, in the assay on ACHN renal, in the assay on BT-549 breast, in the assay with CAKI-1 renal and in the assay on COLO 205 colon was more than 100 µM throughout. Moreover, the TGI in the assay on HOP-62 NSCLC, in the assay with M14 melanoma, in the assay with MDA-MB-231 breast, with MDA-N, in the assay on OVCAR-4 ovarian and with OVCAR-8 ovarian was more than 100 µM each time. In addition, the TGI in the assay on PC-3 prostate was more than 100 µM; in the assay on SF-268 CNS, more than 100 µM; with SNB-75 CNS, more than 100 µM; in the assay with SR leukemia it was 51.1 µM; in the assay on SW-620 colon it was more than 100 µM; with UACC-257 melanoma it was more than 100 µM.

The values above are taken from PubChem BioAssay (NCI).
